Measured values published in PMC11412156 (Journal of medicinal chemistry, 2024).

Legend:
Type in all cases: biochemical
[1] = target: T1, HDAC8 (Homo sapiens, UniProt Q9BY41); test: HDAC enzyme-based fluorogenic assay, HDAC8; conditions: read-out: HDAC8 IC50; mean of at least three experiments
T1 sequence (Q9BY41 1-377): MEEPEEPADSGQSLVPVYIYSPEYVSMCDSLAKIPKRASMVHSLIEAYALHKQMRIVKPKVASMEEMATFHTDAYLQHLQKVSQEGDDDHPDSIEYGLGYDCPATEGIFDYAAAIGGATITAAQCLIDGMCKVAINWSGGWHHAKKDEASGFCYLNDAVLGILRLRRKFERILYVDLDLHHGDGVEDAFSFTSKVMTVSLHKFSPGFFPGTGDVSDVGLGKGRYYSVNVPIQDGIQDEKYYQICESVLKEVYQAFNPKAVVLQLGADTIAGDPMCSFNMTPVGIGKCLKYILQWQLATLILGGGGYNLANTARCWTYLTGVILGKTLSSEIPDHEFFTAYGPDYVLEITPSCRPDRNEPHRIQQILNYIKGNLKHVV

[2] = target: T2, HDAC6 (Homo sapiens, UniProt Q9UBN7); test: HDAC enzyme-based fluorogenic assay, HDAC6; conditions: for HDAC6 inhibitor rate: final concentration of 2 μM, preliminary screen; for IC50: read-out: HDAC6 IC50, mean of at least three experiments
T2 sequence (Q9UBN7 1-1215): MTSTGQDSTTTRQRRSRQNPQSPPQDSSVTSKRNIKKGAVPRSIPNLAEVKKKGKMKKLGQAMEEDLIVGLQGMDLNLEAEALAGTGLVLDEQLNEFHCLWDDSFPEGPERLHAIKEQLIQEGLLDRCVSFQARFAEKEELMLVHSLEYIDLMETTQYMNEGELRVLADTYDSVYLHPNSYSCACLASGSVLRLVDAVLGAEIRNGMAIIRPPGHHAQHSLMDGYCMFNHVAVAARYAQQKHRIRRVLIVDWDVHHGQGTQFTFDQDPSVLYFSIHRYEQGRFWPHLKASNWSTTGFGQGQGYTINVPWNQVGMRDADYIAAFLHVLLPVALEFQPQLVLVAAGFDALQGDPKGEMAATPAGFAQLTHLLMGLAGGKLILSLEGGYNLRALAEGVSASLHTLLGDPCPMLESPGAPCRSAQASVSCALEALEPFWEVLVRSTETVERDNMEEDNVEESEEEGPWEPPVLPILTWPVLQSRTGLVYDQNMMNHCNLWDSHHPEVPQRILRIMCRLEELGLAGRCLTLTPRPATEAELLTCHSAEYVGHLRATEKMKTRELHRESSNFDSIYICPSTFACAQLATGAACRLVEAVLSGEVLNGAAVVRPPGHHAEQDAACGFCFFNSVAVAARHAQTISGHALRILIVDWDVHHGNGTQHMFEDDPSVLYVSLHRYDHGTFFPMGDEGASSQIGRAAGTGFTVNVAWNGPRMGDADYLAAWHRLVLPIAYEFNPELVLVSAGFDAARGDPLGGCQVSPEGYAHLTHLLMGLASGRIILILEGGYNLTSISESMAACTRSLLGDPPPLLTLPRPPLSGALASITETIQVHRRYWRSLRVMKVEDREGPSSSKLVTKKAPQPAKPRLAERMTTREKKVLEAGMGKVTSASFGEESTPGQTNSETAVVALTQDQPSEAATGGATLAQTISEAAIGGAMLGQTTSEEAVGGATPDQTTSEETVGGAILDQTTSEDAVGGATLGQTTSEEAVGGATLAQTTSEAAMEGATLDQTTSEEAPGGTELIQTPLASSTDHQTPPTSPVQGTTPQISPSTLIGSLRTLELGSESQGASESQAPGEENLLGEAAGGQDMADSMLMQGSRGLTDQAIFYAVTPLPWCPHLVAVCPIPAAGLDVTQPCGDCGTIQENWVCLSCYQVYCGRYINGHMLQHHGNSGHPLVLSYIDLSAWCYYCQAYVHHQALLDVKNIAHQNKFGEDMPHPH

[3] = target: HDAC1 (Homo sapiens, UniProt Q13547); test: HDAC enzyme-based fluorogenic assay, HDAC1; conditions: read-out: HDAC1 IC50; mean of at least three experiments
Chain of HDAC1 (Q13547 whole entry): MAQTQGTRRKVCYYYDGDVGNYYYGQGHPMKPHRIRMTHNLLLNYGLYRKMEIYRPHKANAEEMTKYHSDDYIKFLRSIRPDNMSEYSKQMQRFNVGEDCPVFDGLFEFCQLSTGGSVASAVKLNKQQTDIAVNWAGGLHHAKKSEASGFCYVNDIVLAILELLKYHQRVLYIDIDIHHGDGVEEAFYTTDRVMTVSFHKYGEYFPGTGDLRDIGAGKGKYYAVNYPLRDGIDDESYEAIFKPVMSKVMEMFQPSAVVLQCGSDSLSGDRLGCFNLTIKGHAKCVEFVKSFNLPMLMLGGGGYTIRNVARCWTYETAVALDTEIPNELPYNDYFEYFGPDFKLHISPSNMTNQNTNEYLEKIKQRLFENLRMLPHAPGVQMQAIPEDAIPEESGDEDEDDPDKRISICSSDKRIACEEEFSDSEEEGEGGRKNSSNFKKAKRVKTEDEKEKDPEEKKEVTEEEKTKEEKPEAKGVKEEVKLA

[4] = target: T3, HDAC11 (Homo sapiens, UniProt Q96DB2); test: HDAC enzyme-based fluorogenic assay, HDAC11; conditions: read-out: HDAC11 IC50; mean of at least three experiments
T3 sequence (Q96DB2 1-347): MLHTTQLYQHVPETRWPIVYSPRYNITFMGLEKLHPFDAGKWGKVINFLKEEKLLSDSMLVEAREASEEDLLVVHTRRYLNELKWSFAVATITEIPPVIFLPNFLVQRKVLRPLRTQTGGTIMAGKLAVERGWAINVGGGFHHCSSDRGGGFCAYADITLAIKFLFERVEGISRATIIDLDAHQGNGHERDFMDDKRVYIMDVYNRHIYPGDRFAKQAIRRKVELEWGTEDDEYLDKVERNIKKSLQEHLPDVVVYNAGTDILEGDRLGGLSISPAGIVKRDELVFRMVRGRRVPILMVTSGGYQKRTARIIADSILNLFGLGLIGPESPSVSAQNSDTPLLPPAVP

[5] = target: HDAC2 (Homo sapiens, UniProt Q92769); test: HDAC enzyme-based fluorogenic assay, HDAC2; conditions: read-out: HDAC2 IC50; mean of at least three experiments
Chain of HDAC2 (Q92769 whole entry): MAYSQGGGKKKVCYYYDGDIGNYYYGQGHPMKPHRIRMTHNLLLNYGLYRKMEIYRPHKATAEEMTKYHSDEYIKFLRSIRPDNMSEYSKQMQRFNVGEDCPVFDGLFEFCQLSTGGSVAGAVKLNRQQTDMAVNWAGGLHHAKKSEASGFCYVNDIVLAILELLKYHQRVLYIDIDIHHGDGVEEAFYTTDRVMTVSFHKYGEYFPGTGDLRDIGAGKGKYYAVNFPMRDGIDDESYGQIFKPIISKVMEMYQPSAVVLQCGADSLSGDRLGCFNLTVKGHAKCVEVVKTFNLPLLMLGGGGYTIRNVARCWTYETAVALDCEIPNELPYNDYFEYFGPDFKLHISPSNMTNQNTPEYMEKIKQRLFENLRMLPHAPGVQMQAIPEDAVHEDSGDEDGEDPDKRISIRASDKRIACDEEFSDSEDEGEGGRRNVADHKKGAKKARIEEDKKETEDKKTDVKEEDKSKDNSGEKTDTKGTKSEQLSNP

[6] = target: HDAC3 (Homo sapiens, UniProt O15379); test: HDAC enzyme-based fluorogenic assay, HDAC3; conditions: read-out: HDAC3 IC50; mean of at least three experiments
Chain of HDAC3 (O15379 whole entry): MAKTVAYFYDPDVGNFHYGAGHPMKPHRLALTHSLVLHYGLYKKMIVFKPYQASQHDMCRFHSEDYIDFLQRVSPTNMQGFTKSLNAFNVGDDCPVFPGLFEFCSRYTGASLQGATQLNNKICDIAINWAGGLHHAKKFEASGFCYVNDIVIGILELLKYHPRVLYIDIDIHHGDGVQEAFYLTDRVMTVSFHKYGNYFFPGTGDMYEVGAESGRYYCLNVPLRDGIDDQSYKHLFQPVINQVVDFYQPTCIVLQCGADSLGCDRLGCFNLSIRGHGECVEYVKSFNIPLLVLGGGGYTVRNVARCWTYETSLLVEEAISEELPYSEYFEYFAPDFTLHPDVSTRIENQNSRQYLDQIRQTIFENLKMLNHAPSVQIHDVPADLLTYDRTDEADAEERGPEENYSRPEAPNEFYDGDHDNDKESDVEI
Chain of HDAC3 (Q9Y618 395-489 partner limits assumed): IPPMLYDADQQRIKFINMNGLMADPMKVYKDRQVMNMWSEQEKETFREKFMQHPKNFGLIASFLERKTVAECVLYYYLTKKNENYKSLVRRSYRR

Row | SMILES | IC50 [1] [nM] | HDAC6 inhibitor rate [2] [%] | IC50 [2] [nM] | IC50 [3] [nM] | IC50 [4] [nM] | IC50 [5] [nM] | IC50 [6] [nM]
1 | C[C@]12CC3CC(Nc4c(Nc5ccc(C(=O)N6CCC[C@H](C(=O)NCCCCCC(=O)NO)C6)cc5)c(=O)c4=O)(C1)C[C@@](C)(C3)C2 [Compound 40c, (S)-1-(4-((2-(((1r,3R,5S,7r)-3,5-Dimethyladamantan-1-yl)amino)-3,4-dioxocyclobut-1-en-1-yl)amino)benzoyl)-N-(6-(hydroxyamino)-6-oxohexyl)piperidine-3-carbo-xamide] | 520 | 98.49 | 282 | 1030 | 84 | 3100 | 4150
2 | CC12CC3CC(C)(C1)CC(Nc1c(Nc4ccc(C(=O)N5CCC[C@H](C(=O)NCCCCCCC(=O)NO)C5)cc4)c(=O)c1=O)(C3)C2 [Compound 40d, (S)-1-(4-((2-(((1r,3R,5S,7r)-3,5-Dimethyladamantan-1-yl)amino)-3,4-dioxocyclobut-1-en-1-yl)amino)benzoyl)-N-(7-(hydroxyamino)-7-oxoheptyl)piperidine-3-carboxamide] | 158 | 99.66 | 162 | 415 | 241 | 2530 | 1450
